# Assays:
# Test in all cases: relative viability (nuclei count vs DMSO), 5 days (fraction); higher = more cells survive
# NCI-H838 = tested on: NCI-H838
# Summary of the method: (§1)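 Nuclei were stained with Hoechst during a one-step fixation (final 0.05% Triton X-100, 1% formaldehyde, 1 ug/ml Hoechst) carried out 5 days after dosing, then counted on 4× images. The cells, lung cancer lines in 1536-well plates, had been dosed by pin tool the day after seeding with one drug alone or a fixed anchor-drug dose plus five library-drug doses (not always all listed) in √10 steps. Relative viability is the nuclei count in treated wells divided by that in vehicle wells, and each value is the median of duplicate plates.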
# NCI-H358 = tested on: NCI-H358
# Summary of the method: as §1
# NCI-H1666 = tested on: NCI-H1666
# Summary of the method: as §1
# NCI-H1944 = tested on: NCI-H1944
# Summary of the method: as §1
# LCLC-97TM1 = tested on: LCLC-97TM1
# Summary of the method: as §1
# LU99A = tested on: LU99A
# Summary of the method: as §1
# HCC-78 = tested on: HCC-78
# Summary of the method: as §1
# NCI-H1355 = tested on: NCI-H1355
# Summary of the method: as §1
# NCI-H1975 = tested on: NCI-H1975
# Summary of the method: as §1
# LXF-289 = tested on: LXF-289
# Summary of the method: as §1
# NCI-H650 = tested on: NCI-H650
# Summary of the method: as §1
# LK-2 = tested on: LK-2
# Summary of the method: as §1
# NCI-H596 = tested on: NCI-H596
# Summary of the method: as §1
# ChaGo-K-1 = tested on: ChaGo-K-1
# Summary of the method: as §1
# NCI-H661 = tested on: NCI-H661
# Summary of the method: as §1
# BEN = tested on: BEN
# Summary of the method: as §1
# PC-3 [JPC-3] = tested on: PC-3 [JPC-3]
# Summary of the method: as §1
# NCI-H2342 = tested on: NCI-H2342
# Summary of the method: as §1
# NCI-H1651 = tested on: NCI-H1651
# Summary of the method: as §1
# LC-2-ad = tested on: LC-2-ad
# Summary of the method: as §1
# SK-MES-1 = tested on: SK-MES-1
# Summary of the method: as §1
# NCI-H2087 = tested on: NCI-H2087
# Summary of the method: as §1
compound,measurement,setting,value
Nc1ccn([C@@H]2O[C@H](CO)[C@@H](O)[C@@H]2O)c(=O)n1 [Cytarabine] + COc1cc2c(Oc3ccc(NC(=O)C4(C(=O)Nc5ccc(F)cc5)CC4)cc3F)ccnc2cc1OCCCN1CCOCC1 [Foretinib] (partner 0.25 µM),relative viability,NCI-H838; first compound 0.005 µM,1.13
same,relative viability,NCI-H838; first compound 0.01581 µM,1.08
same,relative viability,NCI-H838; first compound 0.05 µM,0.939
same,relative viability,NCI-H838; first compound 0.1581 µM,0.486
same,relative viability,NCI-H838; first compound 0.5 µM,0.301
same,relative viability,NCI-H358; first compound 0.005 µM,0.612
same,relative viability,NCI-H358; first compound 0.01581 µM,0.603
same,relative viability,NCI-H358; first compound 0.05 µM,0.3
same,relative viability,NCI-H358; first compound 0.1581 µM,0.131
same,relative viability,NCI-H358; first compound 0.5 µM,0.126
same,relative viability,NCI-H1666; first compound 0.005 µM,0.921
same,relative viability,NCI-H1666; first compound 0.01581 µM,0.869
same,relative viability,NCI-H1666; first compound 0.05 µM,0.799
same,relative viability,NCI-H1666; first compound 0.1581 µM,0.549
same,relative viability,NCI-H1666; first compound 0.5 µM,0.541
same,relative viability,NCI-H1944; first compound 0.005 µM,0.633
same,relative viability,NCI-H1944; first compound 0.01581 µM,0.438
same,relative viability,NCI-H1944; first compound 0.05 µM,0.331
same,relative viability,NCI-H1944; first compound 0.1581 µM,0.223
same,relative viability,NCI-H1944; first compound 0.5 µM,0.168
same,relative viability,LCLC-97TM1; first compound 0.005 µM,0.924
same,relative viability,LCLC-97TM1; first compound 0.01581 µM,0.814
same,relative viability,LCLC-97TM1; first compound 0.05 µM,0.749
same,relative viability,LCLC-97TM1; first compound 0.1581 µM,0.469
same,relative viability,LCLC-97TM1; first compound 0.5 µM,0.485
same,relative viability,LU99A; first compound 0.005 µM,0.762
same,relative viability,LU99A; first compound 0.01581 µM,0.773
same,relative viability,LU99A; first compound 0.05 µM,0.809
same,relative viability,LU99A; first compound 0.1581 µM,0.74
same,relative viability,LU99A; first compound 0.5 µM,0.648
same,relative viability,HCC-78; first compound 0.005 µM,0.601
same,relative viability,HCC-78; first compound 0.01581 µM,0.482
same,relative viability,HCC-78; first compound 0.05 µM,0.524
same,relative viability,HCC-78; first compound 0.1581 µM,0.378
same,relative viability,HCC-78; first compound 0.5 µM,0.372
same,relative viability,NCI-H1355; first compound 0.005 µM,0.976
same,relative viability,NCI-H1355; first compound 0.01581 µM,0.912
same,relative viability,NCI-H1355; first compound 0.05 µM,0.911
same,relative viability,NCI-H1355; first compound 0.1581 µM,0.501
same,relative viability,NCI-H1355; first compound 0.5 µM,0.444
same,relative viability,NCI-H1975; first compound 0.005 µM,0.982
same,relative viability,NCI-H1975; first compound 0.01581 µM,1.03
same,relative viability,NCI-H1975; first compound 0.05 µM,0.889
same,relative viability,NCI-H1975; first compound 0.1581 µM,0.481
same,relative viability,NCI-H1975; first compound 0.5 µM,0.314
same,relative viability,LXF-289; first compound 0.005 µM,0.939
same,relative viability,LXF-289; first compound 0.01581 µM,0.961
same,relative viability,LXF-289; first compound 0.05 µM,0.749
same,relative viability,LXF-289; first compound 0.1581 µM,0.412
same,relative viability,LXF-289; first compound 0.5 µM,0.299
same,relative viability,NCI-H650; first compound 0.005 µM,0.857
same,relative viability,NCI-H650; first compound 0.01581 µM,0.642
same,relative viability,NCI-H650; first compound 0.05 µM,0.504
same,relative viability,NCI-H650; first compound 0.1581 µM,0.283
same,relative viability,NCI-H650; first compound 0.5 µM,0.227
same,relative viability,LK-2; first compound 0.005 µM,1.33
same,relative viability,LK-2; first compound 0.01581 µM,0.683
same,relative viability,LK-2; first compound 0.05 µM,0.741
same,relative viability,LK-2; first compound 0.1581 µM,0.309
same,relative viability,LK-2; first compound 0.5 µM,0.282
same,relative viability,NCI-H596; first compound 0.005 µM,0.923
same,relative viability,NCI-H596; first compound 0.01581 µM,0.723
same,relative viability,NCI-H596; first compound 0.05 µM,0.542
same,relative viability,NCI-H596; first compound 0.1581 µM,0.44
same,relative viability,NCI-H596; first compound 0.5 µM,0.336
same,relative viability,ChaGo-K-1; first compound 0.005 µM,0.734
same,relative viability,ChaGo-K-1; first compound 0.01581 µM,0.59
same,relative viability,ChaGo-K-1; first compound 0.05 µM,0.391
same,relative viability,ChaGo-K-1; first compound 0.1581 µM,0.259
same,relative viability,ChaGo-K-1; first compound 0.5 µM,0.251
same,relative viability,NCI-H661; first compound 0.005 µM,0.93
same,relative viability,NCI-H661; first compound 0.01581 µM,0.942
same,relative viability,NCI-H661; first compound 0.05 µM,0.884
same,relative viability,NCI-H661; first compound 0.1581 µM,0.68
same,relative viability,NCI-H661; first compound 0.5 µM,0.519
same,relative viability,BEN; first compound 0.005 µM,0.768
same,relative viability,BEN; first compound 0.01581 µM,0.515
same,relative viability,BEN; first compound 0.05 µM,0.301
same,relative viability,BEN; first compound 0.1581 µM,0.278
same,relative viability,BEN; first compound 0.5 µM,0.222
same,relative viability,PC-3 [JPC-3]; first compound 0.005 µM,0.947
same,relative viability,PC-3 [JPC-3]; first compound 0.01581 µM,0.832
same,relative viability,PC-3 [JPC-3]; first compound 0.05 µM,0.939
same,relative viability,PC-3 [JPC-3]; first compound 0.1581 µM,0.629
same,relative viability,PC-3 [JPC-3]; first compound 0.5 µM,0.615
same,relative viability,NCI-H2342; first compound 0.005 µM,0.983
same,relative viability,NCI-H2342; first compound 0.01581 µM,0.887
same,relative viability,NCI-H2342; first compound 0.05 µM,0.798
same,relative viability,NCI-H2342; first compound 0.1581 µM,0.784
same,relative viability,NCI-H2342; first compound 0.5 µM,0.676
same,relative viability,NCI-H1651; first compound 0.005 µM,0.769
same,relative viability,NCI-H1651; first compound 0.01581 µM,0.808
same,relative viability,NCI-H1651; first compound 0.05 µM,0.723
same,relative viability,NCI-H1651; first compound 0.1581 µM,0.583
same,relative viability,NCI-H1651; first compound 0.5 µM,0.372
same,relative viability,LC-2-ad; first compound 0.005 µM,0.899
same,relative viability,LC-2-ad; first compound 0.01581 µM,0.823
same,relative viability,LC-2-ad; first compound 0.05 µM,0.839
same,relative viability,LC-2-ad; first compound 0.1581 µM,0.62
same,relative viability,LC-2-ad; first compound 0.5 µM,0.41
same,relative viability,SK-MES-1; first compound 0.005 µM,0.763
same,relative viability,SK-MES-1; first compound 0.01581 µM,0.704
same,relative viability,SK-MES-1; first compound 0.05 µM,0.457
same,relative viability,SK-MES-1; first compound 0.1581 µM,0.336
same,relative viability,SK-MES-1; first compound 0.5 µM,0.304
same,relative viability,NCI-H2087; first compound 0.005 µM,1.11
same,relative viability,NCI-H2087; first compound 0.01581 µM,0.834
same,relative viability,NCI-H2087; first compound 0.05 µM,0.851
same,relative viability,NCI-H2087; first compound 0.1581 µM,0.491
same,relative viability,NCI-H2087; first compound 0.5 µM,0.253
